US20090130188A9, “Acrylic pressure sensitive adhesives” (National Starch and Chemical Investment Holding Company, priority 2005, published 2009)
Read-outs that look alike come from different tables or passages of the source.

How the values were obtained:
[1] = Ketoprofen added to adhesive solutions, mixed overnight, dissolved vs dispersed; type: physicochemical; conditions: 15% on a solids basis
[2] = for state of ketoprofen in dried adhesive film: dried 30 minutes at 60° C.
[3] = Cholesteryl dodecanoate added to adhesive solutions, mixed overnight at room temperature; type: physicochemical; conditions: 1% on a solids basis
Experimental: Cholesteryl dodecanoate, a model for a highly lipophilic drug, was added at 1% on a solids basis to the solutions of Example 7 and 8. These were then mixed overnight at room temperature.

[4] = film from conventional adhesive solution (Comparative Example 2)

| dissolution of ketoprofen in adhesive solution ([1]; adhesive solution of Example 2 (δ 19.0), tube A) | enthalpy of fusion by DSC [2, 4] | state of ketoprofen in dried adhesive film [2, 4] | state of ketoprofen in dried adhesive film ([2]; film from cyclohexane adhesive solution (Example 1)) | dissolution of model active in adhesive solution ([3]; solution of Example 8 (δ 19.4)) | Compound | dissolution of ketoprofen in adhesive solution ([1]; adhesive solution of Example 1 (cyclohexane, δ 16.8), tube B) | dissolution of model active in adhesive solution ([3]; solution of Example 7 (ethanol)) |
| --- | --- | --- | --- | --- | --- | --- | --- |
| completely dissolved | zero | no visible crystals | undissolved crystals | – | CC(C(=O)O)c1cccc(C(=O)c2ccccc2)c1 (stereo not shown) [ketoprofen] | most of the ketoprofen remained as a dispersed solid | – |
| – | – | – | – | completely soluble | CCCCCCCCCCCC(=O)O[C@H]1CC[C@@]2(C)C(=CC[C@H]3[C@@H]4CC[C@H]([C@H](C)CCCC(C)C)[C@@]4(C)CC[C@@H]32)C1 [Cholesteryl dodecanoate] | – | large quantity of undissolved model active |
